Test results from ChEMBL document CHEMBL1201862, “PubChem BioAssay data set” (2004).
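96-well plates; 48 h exposure; 5 concentrations. Endpoints by linear interpolation between flanking doses. Not reached: highest tested concentration assigned. GI50: concentration for 50% inhibition of growth.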 Activity calls are given as the source filed them. Rule as the data show it: active = GI50 up to about 1.1 µM and inactive = higher.

Columns and labels:
Test in all cases: NCI-60 cell line screen, 48 h
NCI-H226 = tested on: NCI-H226
LOX IMVI = tested on: LOX IMVI
MCF7 = tested on: MCF7
OVCAR-8 = tested on: OVCAR-8
SF-295 = tested on: SF-295
SK-MEL-5 = tested on: SK-MEL-5
786-0 = tested on: 786-0
IGROV-1 = tested on: IGROV-1
CCRF-CEM = tested on: CCRF-CEM
HT-29 = tested on: HT-29
MDA-MB-435 = tested on: MDA-MB-435
K562 = tested on: K562
SK-OV-3 = tested on: SK-OV-3
A549 = tested on: A549
HCT-116 = tested on: HCT-116
HL-60 = tested on: HL-60
RXF 393 = tested on: RXF 393
NCI/ADR-RES = tested on: NCI/ADR-RES
PC-3 = tested on: PC-3
RPMI-8226 = tested on: RPMI-8226

Structure (SMILES)	GI50 (NCI-H226)	GI50 (LOX IMVI)	GI50 (MCF7)	GI50 (OVCAR-8)	GI50 (SF-295)	GI50 (SK-MEL-5)	GI50 (786-0)	GI50 (IGROV-1)	GI50 (CCRF-CEM)	GI50 (HT-29)	GI50 (MDA-MB-435)	GI50 (K562)	GI50 (SK-OV-3)	GI50 (A549)	GI50 (HCT-116)	GI50 (HL-60)	GI50 (RXF 393)	GI50 (NCI/ADR-RES)	GI50 (PC-3)	GI50 (RPMI-8226)
COC(=O)[C@H]1COC(=O)N1	> 100 µM (inactive)	> 100 µM (inactive)	> 100 µM (inactive)	> 100 µM (inactive)	> 100 µM (inactive)	> 100 µM (inactive)	> 100 µM (inactive)	> 100 µM (inactive)	> 100 µM (inactive)	> 100 µM (inactive)	> 100 µM (inactive)	> 100 µM (inactive)	> 100 µM (inactive)	> 100 µM (inactive)	> 100 µM (inactive)	89.7 µM (inactive)	> 100 µM (inactive)	> 100 µM (inactive)		
O=c1c(C(c2cnc3ccccc3c2)c2c(O)oc3ccccc3c2=O)c(O)oc2ccccc12	23.1 µM (inactive)	40.1 µM (inactive)		33 µM (inactive)		57.8 µM (inactive)	44.5 µM (inactive)	> 100 µM (inactive)	55.1 µM (inactive)	33.4 µM (inactive)	36.3 µM (inactive)	35.4 µM (inactive)			30.3 µM (inactive)	37.8 µM (inactive)		> 100 µM (inactive)	48.5 µM (inactive)	29 µM (inactive)
CC(Br)C(=O)c1ccc2cc(Br)c3ccccc3c2c1 (configuration not stated)		6.79 µM (inactive)	14.9 µM (inactive)	14 µM (inactive)	16.4 µM (inactive)	14 µM (inactive)	3.34 µM (inactive)	13.1 µM (inactive)	2.45 µM (inactive)	17.1 µM (inactive)	14.5 µM (inactive)	4.18 µM (inactive)	16.8 µM (inactive)	20 µM (inactive)	15.2 µM (inactive)	12 µM (inactive)	15.4 µM (inactive)	18 µM (inactive)		4.65 µM (inactive)
Clc1cccc(-c2nc3cccc4c3n2Cc2ncccc2-4)c1	11.8 µM (inactive)		> 100 µM (inactive)	92.3 µM (inactive)	41.6 µM (inactive)		17.6 µM (inactive)	54.3 µM (inactive)	> 100 µM (inactive)	> 100 µM (inactive)	> 100 µM (inactive)	> 100 µM (inactive)	96.8 µM (inactive)	21.9 µM (inactive)	> 100 µM (inactive)		21.9 µM (inactive)	> 100 µM (inactive)	73.6 µM (inactive)	
COc1cc2c[n+]3c4c(c2c(OC)c1OC)CCCC4CC3 (configuration not stated)					> 100 µM (inactive)	19.3 µM (inactive)	> 100 µM (inactive)	> 100 µM (inactive)	35.3 µM (inactive)	> 100 µM (inactive)	> 100 µM (inactive)	62.4 µM (inactive)	> 100 µM (inactive)	> 100 µM (inactive)	> 100 µM (inactive)		> 100 µM (inactive)	> 100 µM (inactive)	> 100 µM (inactive)	> 100 µM (inactive)
COc1cc(O)c2c(c1)OCC(Cc1ccc(O)cc1)C2=O (configuration not stated)	> 100 µM (inactive)	> 100 µM (inactive)		> 100 µM (inactive)	51.1 µM (inactive)	44.4 µM (inactive)	> 100 µM (inactive)	> 100 µM (inactive)	> 100 µM (inactive)	> 100 µM (inactive)	> 100 µM (inactive)	> 100 µM (inactive)	> 100 µM (inactive)	> 100 µM (inactive)	> 100 µM (inactive)	> 100 µM (inactive)	21.1 µM (inactive)	> 100 µM (inactive)	> 100 µM (inactive)	65.5 µM (inactive)
O=C(NS(=O)(=O)Nc1ccc(Cl)cc1)OCc1ccc(Cl)cc1Cl		22.6 µM (inactive)	14.8 µM (inactive)	31.3 µM (inactive)	17.2 µM (inactive)	17.8 µM (inactive)	34.6 µM (inactive)	17.8 µM (inactive)	57 µM (inactive)	20.5 µM (inactive)	22.1 µM (inactive)	28.4 µM (inactive)	21.1 µM (inactive)	21.8 µM (inactive)	20 µM (inactive)	25.3 µM (inactive)		21.9 µM (inactive)	31.4 µM (inactive)	54.5 µM (inactive)
C[C@]12CCC(=O)C=C1CC[C@@H]1C2CC[C@]2(C)Nc3c(ncn3-c3ccc(F)cc3)CC12 (some centres not stated)	49.2 µM (inactive)		18 µM (inactive)	35.2 µM (inactive)	15.3 µM (inactive)	13.5 µM (inactive)	31 µM (inactive)	52.4 µM (inactive)	21 µM (inactive)	18.9 µM (inactive)	12.6 µM (inactive)	5.82 µM (inactive)	39.3 µM (inactive)	21.9 µM (inactive)	15 µM (inactive)	3.2 µM (inactive)	5.56 µM (inactive)		12 µM (inactive)	
COc1cc(C2C3=C(COC3=O)OC(C)(C)Oc3cc4c(cc32)OCO4)cc(OC)c1O (configuration not stated)		0.706 µM (active)	0.364 µM (active)	0.964 µM (active)	0.232 µM (active)	0.246 µM (active)	1.12 µM (active)	0.989 µM (active)	1.36 µM (inactive)	2.19 µM (inactive)	0.217 µM (active)	0.383 µM (active)	0.757 µM (active)	0.944 µM (active)	0.548 µM (active)	0.291 µM (active)	0.122 µM (active)	0.39 µM (active)	0.444 µM (active)	1.62 µM (inactive)
CCOC(=O)C1c2[nH]c3ccccc3c2CCN1C(=O)c1ccco1 (configuration not stated)			> 10 µM (inactive)	> 10 µM (inactive)	> 10 µM (inactive)	> 10 µM (inactive)	> 10 µM (inactive)	> 10 µM (inactive)	> 10 µM (inactive)	> 10 µM (inactive)	> 10 µM (inactive)	> 10 µM (inactive)	> 10 µM (inactive)	> 10 µM (inactive)	> 10 µM (inactive)	> 10 µM (inactive)		> 10 µM (inactive)	> 10 µM (inactive)	> 10 µM (inactive)
Cc1c(C(=O)O)n2c(C)nnc2c2ccccc12	> 100 µM (inactive)	> 100 µM (inactive)	> 100 µM (inactive)	> 100 µM (inactive)	> 100 µM (inactive)	> 100 µM (inactive)	> 100 µM (inactive)	> 100 µM (inactive)	> 100 µM (inactive)	> 100 µM (inactive)	> 100 µM (inactive)	> 100 µM (inactive)	> 100 µM (inactive)	> 100 µM (inactive)	> 100 µM (inactive)		> 100 µM (inactive)	> 100 µM (inactive)	> 100 µM (inactive)	
C#CCOCC12C=CC(O1)C1COC(=O)C12 (configuration not stated)	> 100 µM (inactive)	> 100 µM (inactive)		> 100 µM (inactive)	> 100 µM (inactive)	> 100 µM (inactive)	> 100 µM (inactive)	> 100 µM (inactive)	> 100 µM (inactive)	> 100 µM (inactive)	> 100 µM (inactive)	> 100 µM (inactive)	> 100 µM (inactive)	> 100 µM (inactive)	> 100 µM (inactive)	> 100 µM (inactive)	> 100 µM (inactive)	> 100 µM (inactive)	> 100 µM (inactive)	> 100 µM (inactive)
Cn1c(=O)c2nc[nH]c2n(C)c1=O [THEOPHYLLINE]	> 100 µM (inactive)	> 100 µM (inactive)	> 100 µM (inactive)	> 100 µM (inactive)		> 100 µM (inactive)	> 100 µM (inactive)	> 100 µM (inactive)	> 100 µM (inactive)			> 100 µM (inactive)		> 100 µM (inactive)	> 100 µM (inactive)	> 100 µM (inactive)		> 100 µM (inactive)	> 100 µM (inactive)	> 100 µM (inactive)
COC1=CC(=O)C(O)=C(C[C@@]2(C)[C@@H]3CCC[C@H](COC(=O)CCCCCNC(=O)OC(C)(C)C)[C@@]3(C)CC[C@@H]2C)C1=O	8.45 µM (inactive)	> 10 µM (inactive)	4.22 µM (inactive)	6.73 µM (inactive)	5.28 µM (inactive)	3.77 µM (inactive)	> 10 µM (inactive)	3.61 µM (inactive)	1.09 µM (active)	5.12 µM (inactive)	> 10 µM (inactive)	3.86 µM (inactive)	> 10 µM (inactive)	3.59 µM (inactive)	6.55 µM (inactive)	3.04 µM (inactive)	3.67 µM (inactive)		> 10 µM (inactive)	3.54 µM (inactive)
O=C(CCc1nnc2s/c(=C\c3ccccc3)c(=O)n12)Nc1cc(Cl)ccc1Cl	> 100 µM (inactive)	> 100 µM (inactive)		> 100 µM (inactive)	> 100 µM (inactive)	> 100 µM (inactive)	> 100 µM (inactive)	> 100 µM (inactive)	> 100 µM (inactive)	> 100 µM (inactive)		> 100 µM (inactive)	> 100 µM (inactive)	> 100 µM (inactive)	24 µM (inactive)	> 100 µM (inactive)	> 100 µM (inactive)			> 100 µM (inactive)
O=c1[nH]c(=O)c2c([nH]1)[nH]c1ccc(Br)cc12	> 100 µM (inactive)	> 100 µM (inactive)	69 µM (inactive)	> 100 µM (inactive)	> 100 µM (inactive)	95.1 µM (inactive)	66.2 µM (inactive)	77.6 µM (inactive)	82.2 µM (inactive)	> 100 µM (inactive)	> 100 µM (inactive)		13.6 µM (inactive)	> 100 µM (inactive)	> 100 µM (inactive)	70.6 µM (inactive)	> 100 µM (inactive)	> 100 µM (inactive)		79.6 µM (inactive)
